Source: EPA's ToxValDB 9.5

What was measured:
[1] = tested on: Rattus norvegicus; details: inhalation; for LEL / NEL: Crl:CD(SD) BR
[2] = tested on: Mus musculus; details: subchronic, duration: 90 days, inhalation, Crl:CD-1 (ICR) BR
[3] = reproduction developmental, duration: 9 days, F, Crl: CD BR, generation: P0, P0: General Toxicity: Whole Body: Maternal Body Weight Change + P0: General Toxicity: Whole Body: Mortality + P0: Nervous: Whole Body: …
[4] = reproduction developmental, duration: 9 days, F, Crl:CD BR, generation: P0, P0: Developmental: Uterus: Implantation + P0: Developmental: Uterus: Post-Implantation Loss + P0: Developmental: Uterus: Pre-Implantation …
[5] = reproduction developmental, duration: 9 days, F, Crl:CD BR, generation: P0, P0: Developmental: Uterus: Post-Implantation Loss + P0: Developmental: Uterus: Resorptions, Mean/Litter + P0: General Toxicity: Whole Body: …
[6] = reproduction developmental, duration: 9 days, F, generation: P0, P0: Ovary: Corpora Lutea
[7] = reproduction developmental, duration: 9 days, F, generation: P0, P0: Whole Body: Clinical Observations + P0: Whole Body: Maternal Body Weight Change
[8] = reproduction developmental, duration: 9 days, F, generation: P0, P0: Whole Body: Lethargic
[9] = subchronic, duration: 90 days, F, Crl:CD BR, General Toxicity: Whole Body: Body Weight Change + General Toxicity: Whole Body: Clinical Observations + Hepatic: Liver: Alkaline …
[10] = subchronic, duration: 90 days, F, Crl:CD BR, Nervous: Brain: Brain Weight, Absolute + Nervous: Brain: Brain Weight, Relative + Whole Body: Whole Body: Functional Observation Battery (…
[11] = subchronic, duration: 90 days, F, Liver: Alkaline Phosphatase (ALP), Blood
[12] = subchronic, duration: 90 days, M, Crl:CD BR, General Toxicity: Whole Body: Body Weight Change + General Toxicity: Whole Body: Clinical Observations + Hepatic: Liver: Liver Weight, …
[13] = subchronic, duration: 90 days, M, Crl:CD BR, Nervous: Brain: Brain Weight, Absolute + Nervous: Brain: Brain Weight, Relative + Whole Body: Whole Body: Functional Observation Battery (…
[14] = subchronic, duration: 90 days, M, Blood: Triglycerides (TRIG), Blood + Whole Body: Function Observation Battery (FOB)
[15] = F, General Toxicity: Whole Body: Body Weight Change + General Toxicity: Whole Body: Clinical Observations + General Toxicity: Whole Body: …
[16] = F, Nervous: Brain: Brain Weight, Absolute + Nervous: Brain: Brain Weight, Relative
[17] = M, Blood: Triglycerides (TRIG), Blood + Whole Body: Mortality
[18] = M, General Toxicity: Whole Body: Body Weight Change + General Toxicity: Whole Body: Clinical Observations + General Toxicity: Whole Body: …
[19] = M, Nervous: Brain: Brain Weight, Absolute + Nervous: Brain: Brain Weight, Relative

SMILES: FC(Cl)C(F)(F)F (stereo unspecified) [2-Chloro-1,1,1,2-tetrafluoroethane]
- LOAEL [1, 3]: 279000 mg/m3
- NOAEL [1, 3]: 55800 mg/m3
- LOAEL [1, 4]: 83700 mg/m3
- NOAEL [1, 4]: 27900 mg/m3
- NOAEL ([1]; reproduction developmental, duration: 9 days, F, Crl:CD BR, generation: P0, P0: Developmental: Uterus: Implantation + P0: Developmental: Uterus: Pre-Implantation Loss + P0: Reproductive: Ovary: Corpora Lutea): 279000 mg/m3
- LOAEL [1, 5]: 279000 mg/m3
- NOAEL [1, 5]: 83700 mg/m3
- LEL [1, 6]: 83700 mg/m3
- NEL [1, 6]: 27900 mg/m3
- LEL ([1]; reproduction developmental, duration: 9 days, F, generation: P0, P0: Uterus: Implantation): 27900 mg/m3
- NEL ([1]; reproduction developmental, duration: 9 days, F, generation: P0, P0: Uterus: Implantation + P0: Uterus: Resorptions, Early + P0: Uterus: Resorptions, Total + P0: Whole Body: Maternal Body Weight Change + …): 279000 mg/m3
- NEL ([1]; reproduction developmental, duration: 9 days, F, generation: P0, P0: Uterus: Post-Implantation Loss + P0: Uterus: Pre-Implantation Loss + P0: Uterus: Resorptions, Mean/Litter + P0: Whole Body: Delivered …): 279000 mg/m3
- LEL [1, 7]: 279000 mg/m3
- NEL [1, 7]: 83700 mg/m3
- LEL [1, 8]: 279000 mg/m3
- NEL [1, 8]: 55800 mg/m3
- NEL ([1]; reproduction developmental, duration: 9 days, M/F, generation: P0, P0: Uterus: Fetuses, Dead + P0: Uterus: Fetuses, Live + P0: Whole Body: Body Weight, Fetal): 279000 mg/m3
- NEL ([1]; short-term, duration: 4 weeks, F, Adrenal: Adrenal Gland Weight, Absolute + Adrenal: Adrenal Gland Weight, Relative + Bladder: Urinary Bladder Calculus + Bladder: Urinary …): 279000 mg/m3
- NEL ([1]; short-term, duration: 4 weeks, M, Adrenal: Adrenal Gland Weight, Absolute + Adrenal: Adrenal Gland Weight, Relative + Blood: Abnormal Lymphocytes + Blood: Band Neutrophils + …): 279000 mg/m3
- LOAEL ([1]; subchronic, duration: 90 days, F, Crl:CD BR, Cardiovascular: Heart: Heart Weight, Absolute + Cardiovascular: Heart: Heart Weight, Relative + Endocrine: Adrenal: Adrenal Gland Weight, …): 83700 mg/m3
- LOAEL [1, 9]: 279000 mg/m3
- NOAEL [1, 9]: 83700 mg/m3
- LOAEL [1, 10]: 83700 mg/m3
- NOAEL [1, 10]: 27900 mg/m3
- NEL ([1]; subchronic, duration: 90 days, F, Adrenal: Adrenal Gland Weight, Absolute + Adrenal: Adrenal Gland Weight, Relative + Blood: Hematology, Unspecified + Brain: Brain Weight, …): 279000 mg/m3
- LEL [1, 11]: 279000 mg/m3
- NEL [1, 11]: 83700 mg/m3
- LOAEL ([1]; subchronic, duration: 90 days, M, Crl:CD BR, Cardiovascular: Heart: Heart Weight, Absolute + Cardiovascular: Heart: Heart Weight, Relative + Endocrine: Adrenal: Adrenal Gland Weight, …): 83700 mg/m3
- LOAEL [1, 12]: 279000 mg/m3
- NOAEL [1, 12]: 83700 mg/m3
- LOAEL [1, 13]: 83700 mg/m3
- NOAEL [1, 13]: 27900 mg/m3
- NEL ([1]; subchronic, duration: 90 days, M, Adrenal: Adrenal Gland Weight, Absolute + Adrenal: Adrenal Gland Weight, Relative + Blood: Hematology, Unspecified + Brain: Brain Weight, …): 279000 mg/m3
- LEL [1, 14]: 83700 mg/m3
- NEL [1, 14]: 27900 mg/m3
- NEL ([2]; F, Adrenal: Adrenal Gland Weight, Absolute + Adrenal: Adrenal Gland Weight, Relative + Blood: Hematology, Unspecified + Brain: Brain Weight, …): 279000 mg/m3
- LOAEL ([2]; F, Cardiovascular: Heart: Heart Weight, Absolute + Cardiovascular: Heart: Heart Weight, Relative + Endocrine: Adrenal: Adrenal Gland Weight, …): 83700 mg/m3
- LOAEL [2, 15]: 279000 mg/m3
- NOAEL [2, 15]: 83700 mg/m3
- LOAEL [2, 16]: 83700 mg/m3
- NOAEL [2, 16]: 27900 mg/m3
- LEL ([2]; F, Whole Body: Mortality): 27900 mg/m3
- NEL ([2]; M, Adrenal: Adrenal Gland Weight, Absolute + Adrenal: Adrenal Gland Weight, Relative + Blood: Hematology, Unspecified + Brain: Brain Weight, …): 279000 mg/m3
- LEL [2, 17]: 83700 mg/m3
- NEL [2, 17]: 27900 mg/m3
- LOAEL ([2]; M, Cardiovascular: Heart: Heart Weight, Absolute + Cardiovascular: Heart: Heart Weight, Relative + Endocrine: Adrenal: Adrenal Gland Weight, …): 83700 mg/m3
- LOAEL [2, 18]: 279000 mg/m3
- NOAEL [2, 18]: 83700 mg/m3
- LEL ([2]; M, Heart: Heart Weight, Relative + Whole Body: Body Weight Change): 27900 mg/m3
- LOAEL [2, 19]: 83700 mg/m3
- NOAEL [2, 19]: 27900 mg/m3
